# Target: T1, p38 MAP kinase (Homo sapiens, UniProt Q16539)
# T1 construct: made in house; host or cells: E. coli
# Assay: P38 MAP kinase binding assay (competition with fluorescent probe SKF 86002)
# Settings: inhibition assigned as time-dependent if the IC50 values decrease with the reaction time (more than two-fold in four hours)
# Procedure: Thus, the ability of a small molecule to block fluoroprobe binding provides an experimental readout of binding to the switch control pocket. […] The reaction was initiated by addition of the enzyme. […] By comparison of rfu (relative fluorescence unit) values with that of a control (in the absence of small molecule modulators), the percentage of inhibition at each concentration of the small molecules were calculated. IC50 values for the small molecule modulators were calculated from the % inhibition values obtained at a range of concentrations of the small molecule modulators using Prism. When time-dependent inhibition was assessed, the plate was read at multiple reaction times such as 0.5, 1, 2, 3, 4 and 6 hours. The IC50 values were calculated at each time point. An inhibition was assigned as time-dependent if the IC50 values decrease with the reaction time (more than two-fold in four hours).
# T1 sequence (Q16539 whole entry): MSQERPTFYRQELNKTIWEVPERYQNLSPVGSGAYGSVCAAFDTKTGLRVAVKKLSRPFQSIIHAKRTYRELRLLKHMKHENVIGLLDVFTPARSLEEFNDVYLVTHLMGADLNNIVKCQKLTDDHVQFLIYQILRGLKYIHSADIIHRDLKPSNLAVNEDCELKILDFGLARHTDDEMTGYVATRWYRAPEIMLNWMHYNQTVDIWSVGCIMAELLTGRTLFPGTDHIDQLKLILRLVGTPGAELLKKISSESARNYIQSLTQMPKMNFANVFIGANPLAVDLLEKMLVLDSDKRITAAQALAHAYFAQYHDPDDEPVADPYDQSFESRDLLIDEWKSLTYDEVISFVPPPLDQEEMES
row,Time-dependent,Compound
1,No,"CC(C)(C)c1cc(NC(=O)Nc2cccc3ccccc23)n(-c2ccc(CN)cc2)n1 [Example 45, 1-{3-tert-butyl-1-[4-(aminomethyl)phenyl]-1H-pyrazol-5-yl}-3-(naphthalen-1-yl)urea]"
2,No,CC1(C(=O)O)CC2(C)CC(C)(C1)C(=O)N(Cc1cccc(-n3nc(C(C)(C)C)cc3NC(=O)Nc3cccc4ccccc34)c1)C2=O (stereo not shown) [Example 11]
3,Yes,"CC(C)(C)c1cc(NC(=O)Nc2cccc3ccccc23)n(-c2cccc(CC(=O)N3CCOCC3)c2)n1 [Example 21, 1-{3-tert-butyl-1-[3-(2-morpholino-2-oxoethyl)phenyl)-1H-pyrazol-5-yl}-3-(naphthalene-1-yl)urea]"
4,No,CC1(C(=O)O)CC2(C)CC(C)(C1)C(=O)N(Cc1cccc(-n3nc(C(C)(C)C)cc3NC(=O)Nc3ccc(Cl)cc3)c1)C2=O (stereo not shown) [Example 12]
